Assay [1] deals with T1, human TEAD2 (amino acids 217-447) (Homo sapiens, UniProt Q15562).
T1 construct: human TEAD2 (amino acids 217-447); His-tag (N); purchased Proteros biostructures PR-0365; host or cells: E. coli
Description: Thermal shift assay (TSA). Type of assay: binding. As to conditions: 3 μM recombinant TEAD2, compound 7 μM, shift vs DMSO control. As to the method:
The thermal shift assay (TSA) was utilized to characterize target engagement in vitro based on ligand-dependent thermal stabilization of the protein. N-terminally His-tagged human TEAD2 (amino acids 217-447) expressed and purified from E. coli was purchased from Proteros biostructures (cat no. PR-0365). The melting reactions were performed in white, 96 well qPCR plates (Roche Diagnostics, cat. no. 04 729 692 001) in 20 mM HEPES pH 7, 100 mM NaCl in the presence of 4×SYPRO orange (Sigma, cat. no. S5692). Each well contained 3 μM recombinant TEAD2 and either DMSO (control) or experimental compounds at a final concentration of 7 μM. The total volume was 20 μL and the final DMSO concentration was 1%. The plate was sealed and analyzed in a LightCycler 480 II (Roche Diagnostics) by continuously reading the fluorescence using the 465-580 nm filter set while heating from 25° C. to 95° C. using a linear gradient of 1° C./min. Melting temperatures were determined by numerical differentiation using the LightCycler Thermal Shift Analysis software (Roche Diagnostics). The shifts in melting temperature caused by experimental compounds compared to the control are expressed as ΔTm (Table 2).

Assay [2] relates to TEAD reporter gene activity. In words: TEAD reporter gene assay (MCF7 TEAD reporter cell line). Type of assay: cell-based. The note with it: Homo sapiens; TEAD luciferase reporter in MCF7 cells, 24 hours; read-out: IC50 TEAD RGA (converted). The text has this: A TEAD reporter cell line was purchased from BPS Bioscience (cat. no. 60618). It contains the firefly luciferase gene under control of TEAD responsive elements stably integrated into the human breast cancer MCF7 cells. In proliferating cells, a basal level of unphosphorylated YAP/TAZ resides in the nucleus and drives the TEAD-dependent expression of the luciferase reporter. The cells were cultivated as recommended by the supplier. Inhibition of TEAD reporter gene activity by experimental compounds was measured using white, clear-bottom, 96 well cell culture plates (Greiner Bio-One, cat. no. 655098). The cells were seeded at a density of 20,000 cells per well in 100 μL growth medium and the plates were incubated overnight at 37° C. with 5% CO2 prior to treatment. Experimental compounds were serially diluted in DMSO to 200× the desired final concentrations. 0.5 μL aliquots of DMSO or the test samples were then mixed into the wells and the cells were further incubated for 24 hours. Luminescence was then measured on a Synergy 4 reader (BioTek) using the ONE-Glo Luciferase Assay System (Promega, cat. no. E6120) according to the manufacturer's instructions. Relative inhibition values were calculated by normalizing the raw data using DMSO-treated cells (0% inhibition) and wells devoid of cells (100% inhibition). IC50 values were calculated by fitting concentration-response data to a sigmoidal 4-parameter logistic model.

T1 sequence (Q15562 217-447): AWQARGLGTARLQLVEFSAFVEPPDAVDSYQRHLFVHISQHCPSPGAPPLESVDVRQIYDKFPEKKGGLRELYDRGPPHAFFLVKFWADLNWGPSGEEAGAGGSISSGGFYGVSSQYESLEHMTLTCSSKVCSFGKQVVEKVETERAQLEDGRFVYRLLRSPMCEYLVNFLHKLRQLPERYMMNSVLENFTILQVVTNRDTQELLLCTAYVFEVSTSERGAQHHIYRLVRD

One may read the ΔTm as the change in melting temperature against a reference sample. In general, IC50 refers to the concentration needed to halve the response being measured. As for `Nc1cnc(Nc2ccc(C(F)(F)F)cc2)c(-c2noc(=O)[nH]2)c1` [Example 45, 3-[5-amino-2-[4-(trifluoromethyl)anilino]-3-pyridyl]-4H-1,2,4-oxadiazol-5-one], the thermal shift (ΔTm) at 7 µM in assay [1] was 6 °C. In assay [2], the 50% inhibitory concentration (IC50) is 1350 nM.

Take `O=c1[nH]c(-c2nccnc2Nc2ccc(Cl)c(C(F)(F)F)c2)no1` [Example 30, 3-[3-[4-chloro-3-(trifluoromethyl)anilino]pyrazin-2-yl]-4H-1,2,4-oxadiazol-5-one]: the ΔTm at 7 µM in assay [1] stood at 5.3 °C. Moreover, the IC50 in assay [2] was 4910 nM.

For `NCCOc1ccnc(Nc2ccc(C(F)(F)F)cc2)c1-c1noc(=O)[nH]1` [Example 55, 3-[4-(2-aminoethoxy)-2-[4-(trifluoromethyl)anilino]-3-pyridyl]-4H-1,2,4-oxadiazol-5-one], the ΔTm at 7 µM in assay [1] amounted to 1 °C. In addition, the IC50 in assay [2] is 281 nM.

In the case of `O=c1[nH]c(-c2nccnc2Nc2ccc(-c3nccs3)cc2)no1` [Example 18, 3-[3-(4-thiazol-2-ylanilino)pyrazin-2-yl]-4H-1,2,4-oxadiazol-5-one], in assay [1], the ΔTm at 7 µM was 2.5 °C. Also, the IC50 in assay [2] is 828 nM.

In the case of `O=c1[nH]c(-c2nccnc2Nc2ccc(OC(F)(F)F)cc2)no1` [Example 3, 3-[3-[4-(trifluoromethoxy)anilino]pyrazin-2-yl]-4H-1,2,4-oxadiazol-5-one], the thermal shift (ΔTm) at 7 µM in assay [1] worked out at 11.5 °C. Besides, the IC50 in assay [2] was 90 nM.

Regarding `O=c1[nH]c(-c2nccnc2Nc2ccc(C3CC3)cc2)no1` [Example 39, 3-[3-(4-cyclopropylanilino)pyrazin-2-yl]-4H-1,2,4-oxadiazol-5-one], the ΔTm at 7 µM in assay [1] was determined as 9.3 °C. Moreover, the IC50 in assay [2] was 2820 nM.

Turning to `Nc1cnc(-c2noc(=O)[nH]2)c(Nc2ccc(C(F)(F)F)cc2)n1` [Example 36, 3-[5-amino-3-[4-(trifluoromethyl)anilino]pyrazin-2-yl]-4H-1,2,4-oxadiazol-5-one], the ΔTm at 7 µM in assay [1] was 3.5 °C. Moreover, the IC50 in assay [2] was 149 nM.

Take `CNc1cnc(Nc2ccc(C(F)(F)F)cc2)c(-c2noc(=O)[nH]2)c1` [Example 46, 3-[5-(methylamino)-2-[4-(trifluoromethyl)anilino]-3-pyridyl]-4H-1,2,4-oxadiazol-5-one]: the ΔTm at 7 µM in assay [1] was 7.1 °C. For the same compound, the half-maximal inhibitory concentration (IC50) in assay [2] was 407 nM.

In the case of `CS(=O)(=O)NCCOc1ccnc(Nc2ccc(C(F)(F)F)cc2)c1-c1noc(=O)[nH]1` [Example 57, N-[2-[[3-(5-oxo-4H-1,2,4-oxadiazol-3-yl)-2-[4-(trifluoromethyl)anilino]-4-pyridyl]oxy]ethyl]methanesulfonamide], in assay [1], the ΔTm at 7 µM was 4.1 °C. Further, the IC50 in assay [2] is 388 nM.

As for `COC(C)(C)CCOc1ccnc(Nc2ccc(C(F)(F)F)cc2)c1-c1noc(=O)[nH]1` [Example 66, 3-[4-(3-methoxy-3-methyl-butoxy)-2-[4-(trifluoromethyl)anilino]-3-pyridyl]-4H-1,2,4-oxadiazol-5-one], the ΔTm at 7 µM in assay [1] was 0.4 °C. For the same compound, the IC50 in assay [2] was 1470 nM.

For `COc1cc(C(F)(F)F)ccc1Nc1nccnc1-c1noc(=O)[nH]1` [Example 21, 3-[3-[2-methoxy-4-(trifluoromethyl)anilino]pyrazin-2-yl]-4H-1,2,4-oxadiazol-5-one], the ΔTm at 7 µM in assay [1] came out at 2.1 °C. In addition, the IC50 in assay [2] is 102 nM.

With `O=c1[nH]c(-c2cc(C(F)(F)F)cnc2Nc2ccc(C(F)(F)F)cc2)no1` [Example 10, 3-[5-(trifluoromethyl)-2-[4-(trifluoromethyl)anilino]-3-pyridyl]-4H-1,2,4-oxadiazol-5-one], the ΔTm at 7 µM in assay [1] came out at 10.1 °C. For the same compound, in assay [2], the IC50 was 374 nM.

Turning to `O=c1[nH]c(-c2c(OC3CCOCC3)ccnc2Nc2ccc(C(F)(F)F)cc2)no1` [Example 64, 3-[4-tetrahydropyran-4-yloxy-2-[4-(trifluoromethyl)anilino]-3-pyridyl]-4H-1,2,4-oxadiazol-5-one], the ΔTm at 7 µM in assay [1] was 4.2 °C. Further, the IC50 in assay [2] is 268 nM.

As for `O=c1[nH]c(-c2nccnc2Nc2ccc(-c3ccccc3)cc2)no1` [Example 29, 3-[3-(4-phenylanilino)pyrazin-2-yl]-4H-1,2,4-oxadiazol-5-one], the shift in melting temperature (ΔTm) at 7 µM in assay [1] is 7.3 °C. The IC50 in assay [2] was 503 nM.

For the compound `COCCOc1ccnc(Nc2ccc(C(F)(F)F)cc2)c1-c1noc(=O)[nH]1` [Example 62, 3-[4-(2-methoxyethoxy)-2-[4-(trifluoromethyl)anilino]-3-pyridyl]-4H-1,2,4-oxadiazol-5-one], in assay [1], the thermal shift (ΔTm) at 7 µM was 5.5 °C. Also, the IC50 in assay [2] is 61 nM.

Turning to `O=c1[nH]c(-c2c(OCCF)ccnc2Nc2ccc(C(F)(F)F)cc2)no1` [Example 65, 3-[4-(2-fluoroethoxy)-2-[4-(trifluoromethyl)anilino]-3-pyridyl]-4H-1,2,4-oxadiazol-5-one], the ΔTm at 7 µM in assay [1] turned out to be 6 °C. The IC50 in assay [2] was 81 nM.

As to `O=c1[nH]c(-c2cccnc2Nc2ccc(C(F)(F)F)cc2)no1` [Example 1, 3-[2-[4-(trifluoromethyl)anilino]-3-pyridyl]-4H-1,2,4-oxadiazol-5-one], the ΔTm at 7 µM in assay [1] amounted to 9.9 °C. Further, in assay [2], the IC50 was 39 nM.

As to `O=c1[nH]c(-c2nccnc2Nc2ccc(C(F)(F)F)c(Cl)c2)no1` [Example 20, 3-[3-[3-chloro-4-(trifluoromethyl)anilino]pyrazin-2-yl]-4H-1,2,4-oxadiazol-5-one], the ΔTm at 7 µM in assay [1] was found to be 10.6 °C. In addition, in assay [2], the IC50 was 236 nM.

`CC(C)Oc1ccnc(Nc2ccc(C(F)(F)F)cc2)c1-c1noc(=O)[nH]1` [Example 52, 3-[4-isopropoxy-2-[4-(trifluoromethyl)anilino]-3-pyridyl]-4H-1,2,4-oxadiazol-5-one]: the ΔTm at 7 µM in assay [1] was found to be 5.1 °C. For the same compound, the IC50 in assay [2] was 179 nM.

`NC(=O)COc1ccnc(Nc2ccc(C(F)(F)F)cc2)c1-c1noc(=O)[nH]1` [Example 59, 2-[[3-(5-oxo-4H-1,2,4-oxadiazol-3-yl)-2-[4-(trifluoromethyl)anilino]-4-pyridyl]oxy]acetamide]: the shift in melting temperature (ΔTm) at 7 µM in assay [1] came to 6.7 °C. For the same compound, in assay [2], the IC50 is 2750 nM.

On to `O=c1[nH]c(-c2nccnc2Nc2ccc(C3CCC3)cc2)no1` [Example 41, 3-[3-(4-cyclobutylanilino)pyrazin-2-yl]-4H-1,2,4-oxadiazol-5-one], for which the ΔTm at 7 µM in assay [1] amounted to 12.5 °C. Moreover, in assay [2], the IC50 is 6570 nM.

Consider `O=c1[nH]c(-c2nccnc2Nc2ccc(C(F)(F)F)nc2)no1` [Example 24, 3-[3-[[6-(trifluoromethyl)-3-pyridyl]amino]pyrazin-2-yl]-4H-1,2,4-oxadiazol-5-one], for which the shift in melting temperature (ΔTm) at 7 µM in assay [1] is 3.4 °C. For the same compound, the IC50 in assay [2] was 340 nM.

As for `Nc1cnc(Nc2ccc(C(F)(F)F)cc2)c(-c2noc(=O)[nH]2)n1` [Example 4, 3-[6-amino-3-[4-(trifluoromethyl)anilino]pyrazin-2-yl]-4H-1,2,4-oxadiazol-5-one], the ΔTm at 7 µM in assay [1] came to 2 °C. The IC50 in assay [2] was 85 nM.

Turning to `O=c1[nH]c(-c2nccnc2Nc2ccc(OC(F)(F)F)cc2Cl)no1` [Example 8, 3-[3-[2-chloro-4-(trifluoromethoxy)anilino]pyrazin-2-yl]-4H-1,2,4-oxadiazol-5-one], the ΔTm at 7 µM in assay [1] stood at 7.5 °C. In assay [2], the half-inhibitory concentration (IC50) is 1800 nM.

In the case of `NCCc1cnc(Nc2ccc(C(F)(F)F)cc2)c(-c2noc(=O)[nH]2)n1` [Example 7, 3-[6-(2-aminoethyl)-3-[4-(trifluoromethyl)anilino]pyrazin-2-yl]-4H-1,2,4-oxadiazol-5-one], the ΔTm at 7 µM in assay [1] is 0.5 °C. For the same compound, the IC50 in assay [2] is 2840 nM.

As to `O=c1[nH]c(-c2nccnc2Nc2ccc(C3(C(F)(F)F)CC3)cc2)no1` [Example 40, 3-[3-[4-[1-(trifluoromethyl)cyclopropyl]anilino]pyrazin-2-yl]-4H-1,2,4-oxadiazol-5-one], the ΔTm at 7 µM in assay [1] is 13.4 °C. Moreover, in assay [2], the IC50 was 109 nM.

Consider `O=c1[nH]c(-c2ccccc2Nc2ccc(C(F)(F)F)cc2)no1` [Example 38, 3-[2-[4-(trifluoromethyl)anilino]phenyl]-4H-1,2,4-oxadiazol-5-one], for which, in assay [1], the ΔTm at 7 µM turned out to be 12.6 °C. The IC50 in assay [2] was 39 nM.

As to `COc1cnc(Nc2ccc(C(F)(F)F)cc2)c(-c2noc(=O)[nH]2)n1` [Example 5, 3-[6-methoxy-3-[4-(trifluoromethyl)anilino]pyrazin-2-yl]-4H-1,2,4-oxadiazol-5-one], the ΔTm at 7 µM in assay [1] came out at 4.5 °C. Also, the IC50 in assay [2] is 117 nM.

For the origin of these results see patent publication US20220402900A1, “1,2,4-OXADIAZOL-5-ONE DERIVATIVES FOR THE TREATMENT OF CANCER” (Basilea Pharmaceutica International AG, priority 2019, published 2022).
